Data taken from EPA's ToxValDB 9.5 (doi:10.2903/j.efsa.2016.4574).
In brackets after ≈: the same amount, converted by molar mass.

Assays:
Folsomia candida = conditions: chronic/long-term; duration: 28 days; mortality
Hypoaspis aculeifer = conditions: chronic/long-term; duration: 14 days; mortality
Oncorhynchus mykiss = conditions: acute; duration: 96 hours; mortality
Tagia sp. = conditions: for LC50: acute, duration: 14 days, mortality; for NOEC: chronic/long-term, duration: 56 days, growth
Apis mellifera = conditions: acute, duration: 48 hours, mortality
Canidae = conditions: Dog Other, clinical chemistry
Colinus virginianus = conditions: chronic
Coturnix japonica = conditions: acute; oral; mortality
Daphnia magna = conditions: chronic/long-term; duration: 21 days
Lepomis macrochirus = conditions: acute; duration: 96 hours; mortality
Oryctolagus sp. = conditions: reproduction developmental; body weight
Pimephales promelas = conditions: chronic/long-term; duration: 28 days; growth
Typhlodromus pyri = experiment: LR50; higher = less toxic; conditions: not reported; no effects

SMILES | NOEC (Folsomia candida) [mg/kg] | NOEC (Hypoaspis aculeifer) [mg/kg] | LC50 (Oncorhynchus mykiss) [µg/mL] | LC50 (Tagia sp.) [mg/kg] | NOEC (Tagia sp.) [mg/kg] | LD50 (Apis mellifera; dermal) [µg/piece] | LD50 (Apis mellifera; oral, unspecified) [µg/piece] | NOAEL (Canidae; chronic, duration: 1 years, oral) [mg/kg-day] | NOAEL (Canidae; subchronic, duration: 90 days) [mg/kg-day] | NOEL (Colinus virginianus) [mg/kg-day] | LD50 (Coturnix japonica) [mg/kg-day] | NOEC (Daphnia magna) [mg/L] | LC50 (Lepomis macrochirus) [µg/mL] | NOAEL (Oryctolagus sp.) [mg/kg-day] | NOEC (Pimephales promelas) [mg/L] | LD50 (Rattus norvegicus; acute, oral, mortality) [mg/kg] | NOAEL (Rattus norvegicus; chronic, duration: 2 years, M, histopathology: neoplastic) [mg/kg-day] | NOEL (Rattus norvegicus; reproduction developmental, body weight) [mg/kg-day] | LR50 (Typhlodromus pyri) [g/ha]
C=CCNC(=O)c1c([Si](C)(C)C)sc(C(=O)O)c1C [Silthiofam allyl acid] | 0.207 | 0.207 | > 113 | > 466 | 0.207 |  |  |  |  |  |  |  |  |  |  |  |  |  | 
Cc1c(C(=O)O)sc([Si](C)(C)C)c1C(N)=O [Silthiofam amide acid] | 0.194 | 0.194 | > 110 | > 460 | 0.194 |  |  |  |  |  |  |  |  |  |  |  |  |  | 
C=CCNC(=O)c1c([Si](C)(C)C)sc(C)c1C [Silthiofam] | 1.33 |  |  | 66.5 | 30 | > 100 | > 106 | 10 | 10 | 250 | > 2250 | 0.47 | 11 (≈ 41.1 µM) | 20 | 0.89 | > 5000 | 5 | 23.5 | > 40
